Data from US11446287B2, “Compounds and methods for EP300 or CBP modulation and indications therefor” (Opna Immuno-Oncology SA, priority 2019, dated 2022).

Molecular target: T1, Recombinant human EP300 containing the bromodomain (EP300-BD (1040-1161)) (Homo sapiens, UniProt Q09472)
T1 construct: Recombinant human EP300 bromodomain (EP300-BD (1040-1161)); made in house; host or cells: E. coli BL21-CodonPlus (DE3), modified pET vector
T1 sequence (Q09472 1040-1161): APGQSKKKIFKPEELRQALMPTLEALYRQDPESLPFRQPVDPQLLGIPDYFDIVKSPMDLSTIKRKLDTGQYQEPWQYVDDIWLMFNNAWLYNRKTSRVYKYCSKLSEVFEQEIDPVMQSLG
Test: EP300 Alphascreen binding assay
Procedure, shortened: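 Displacement of a biotinylated acetyl-K56 histone H3 peptide from the N-His bromodomain construct (1040-1161) measured by AlphaScreen proximity, beads at 7.5 μg/ml final, read 60 min after addition. Protein, peptide and compound first incubated 1 h at room temperature, pH 7.5 HEPES buffer; IC50 by four-parameter logistic fit.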

Compound	IC50 [nM]
CC(=O)N1CCC(n2cc(-c3ccc(C(=O)O)cc3OC(F)(F)F)c3cc(-c4c(C)noc4C)cnc32)CC1 [P-0291, 4-(1-(1-acetylpiperidin-4-yl)-5-(3,5-dimethylisoxazol-4-yl)-1H-pyrrolo[2,3-b]pyridin-3-yl)-3-(trifluoromethoxy)benzoic acid]	0.1 to 1000
CCOc1cc(C(=O)O)cc(OCC)c1-n1cc(-c2cnn(CC(C)(C)O)c2)c2ncc(-c3c(C)noc3C)cc21 [P-0260, 4-(6-(3,5-dimethylisoxazol-4-yl)-3-(1-(2-hydroxy-2-methylpropyl)-1H-pyrazol-4-yl)-1H-pyrrolo[3,2-b]pyridin-1-yl)-3,5-diethoxybenzoic acid]	0.1 to 1000
Cc1noc(C)c1-c1cnc2c(-c3ccccc3)cn(-c3c(OCC(F)(F)F)cc(C(=O)O)cc3OCC(F)(F)F)c2c1 [P-0298, 4-(6-(3,5-dimethylisoxazol-4-yl)-3-phenyl-1H-pyrrolo[3,2-b]pyridin-1-yl)-3,5-bis(2,2,2-trifluoroethoxy)benzoic acid]	0.1 to 1000
Cc1noc(C)c1-c1cnc2c(-c3cccc(C(=O)O)c3F)c(C(F)(F)F)n([C@@H](C)c3ccccn3)c2c1 [P-0245, (S)-3-(6-(3,5-dimethylisoxazol-4-yl)-1-(1-(pyridin-2-yl)ethyl)-2-(trifluoromethyl)-1H-pyrrolo[3,2-b]pyridin-3-yl)-2-fluorobenzoic acid]	0.1 to 1000
CCOc1cc(C(=O)O)cc(OCC)c1-n1cc(C2CCC(F)(F)CC2)c2ncc(-c3c(C)noc3C)cc21 [P-0271, 4-(3-(4,4-difluorocyclohexyl)-6-(3,5-dimethylisoxazol-4-yl)-1H-pyrrolo[3,2-b]pyridin-1-yl)-3,5-diethoxybenzoic acid]	0.1 to 1000
Cc1cc(-c2c(C(F)(F)F)n([C@@H](C)c3ccccn3)c3cc(-c4c(C)noc4C)cnc23)ccc1C(=O)O [P-0243, (S)-4-(6-(3,5-dimethylisoxazol-4-yl)-1-(1-(pyridin-2-yl)ethyl)-2-(trifluoromethyl)-1H-pyrrolo[3,2-b]pyridin-3-yl)-2-methylbenzoic acid]	1000 to 8000
COc1ccc(-n2cc(-c3ccc(C(=O)O)cc3OC(F)(F)F)c3cc(-c4c(C)noc4C)cnc32)c(F)c1 [P-0311, 4-(5-(3,5-dimethylisoxazol-4-yl)-1-(2-fluoro-4-methoxyphenyl)-1H-pyrrolo[2,3-b]pyridin-3-yl)-3-(trifluoromethoxy)benzoic acid]	0.1 to 1000
COc1cc(-c2c(C(F)(F)F)n([C@@H](C)c3ccccn3)c3cc(-c4c(C)noc4C)cnc23)ccc1C(=O)O [P-0244, (S)-4-(6-(3,5-dimethylisoxazol-4-yl)-1-(1-(pyridin-2-yl)ethyl)-2-(trifluoromethyl)-1H-pyrrolo[3,2-b]pyridin-3-yl)-2-methoxybenzoic acid]	1000 to 8000
CCCn1nc(C(=O)O)c(NCC)c1-c1cn(-c2ccc(F)cc2F)c2ncc(-c3c(C)noc3C)cc12 [P-0304, 5-(1-(2,4-difluorophenyl)-5-(3,5-dimethylisoxazol-4-yl)-1H-pyrrolo[2,3-b]pyridin-3-yl)-4-(ethylamino)-1-propyl-1H-pyrazole-3-carboxylic acid]	0.1 to 1000
COc1cc(C(=O)O)cc(C)c1-c1cn(-c2ccccc2)c2ncc(-c3c(C)noc3C)cc12 [P-0255, 4-(5-(3,5-dimethylisoxazol-4-yl)-1-phenyl-1H-pyrrolo[2,3-b]pyridin-3-yl)-3-methoxy-5-methylbenzoic acid]	0.1 to 1000
Cc1noc(C)c1-c1cnc2c(c1)c(-c1ccc(C(=O)O)cc1OC(F)(F)F)cn2-c1ccccc1C#N [P-0309, 4-(1-(2-cyanophenyl)-5-(3,5-dimethylisoxazol-4-yl)-1H-pyrrolo[2,3-b]pyridin-3-yl)-3-(trifluoromethoxy)benzoic acid]	0.1 to 1000
CCOc1cc(C(=O)O)cc(OCC)c1-n1cc(-c2cnn(CCN(C)C)c2)c2ncc(-c3c(C)noc3C)cc21 [P-0262, 4-(3-(1-(2-(dimethylamino)ethyl)-1H-pyrazol-4-yl)-6-(3,5-dimethylisoxazol-4-yl)-1H-pyrrolo[3,2-b]pyridin-1-yl)-3,5-diethoxybenzoic acid]	0.1 to 1000
CCOc1cc(C(=O)O)ncc1-c1cn(-c2ccc(F)cc2F)c2ncc(-c3c(C)noc3C)cc12 [P-0295, 5-(1-(2,4-difluorophenyl)-5-(3,5-dimethylisoxazol-4-yl)-1H-pyrrolo[2,3-b]pyridin-3-yl)-4-ethoxypicolinic acid]	0.1 to 1000
Cc1noc(C)c1-c1cnc2c(c1)c(-c1ccc3c(c1)CNC3=O)cn2C(c1ccccn1)C1CCCC1 (stereo not shown) [P-0023, 5-(1-(cyclopentyl(pyridin-2-yl)methyl)-5-(3,5-dimethylisoxazol-4-yl)-1H-pyrrolo[2,3-b]pyridin-3-yl)isoindolin-1-one]	1000 to 8000
CCCn1nc(C(=O)O)c(N)c1-c1cn(-c2ccc(F)cc2F)c2ncc(-c3c(C)noc3C)cc12 [P-0303, 4-amino-5-(1-(2,4-difluorophenyl)-5-(3,5-dimethylisoxazol-4-yl)-1H-pyrrolo[2,3-b]pyridin-3-yl)-1-propyl-1H-pyrazole-3-carboxylic acid]	0.1 to 1000
Cc1noc(C)c1-c1cnc2c(c1)c(-c1ccc(C(=O)O)cc1OCC(F)F)cn2-c1ccccc1 [P-0277, 3-(2,2-difluoroethoxy)-4-(5-(3,5-dimethylisoxazol-4-yl)-1-phenyl-1H-pyrrolo[2,3-b]pyridin-3-yl)benzoic acid]	0.1 to 1000
Cc1noc(C)c1-c1cnc2c(c1)c(-c1ccc(C(=O)O)cc1OCC(F)(F)F)cn2-c1ccccc1 [P-0278, 4-(5-(3,5-dimethylisoxazol-4-yl)-1-phenyl-1H-pyrrolo[2,3-b]pyridin-3-yl)-3-(2,2,2-trifluoroethoxy)benzoic acid]	0.1 to 1000
CCOc1cc(C(=O)O)cc(OCC)c1-n1cc(CC2CCC2)c2ncc(-n3c(C)nnc3C)cc21 [P-0270, 4-(3-(cyclobutylmethyl)-6-(3,5-dimethyl-4H-1,2,4-triazol-4-yl)-1H-pyrrolo[3,2-b]pyridin-1-yl)-3,5-diethoxybenzoic acid]	1000 to 8000
Cc1noc(C)c1-c1cnc2c(c1)c(-c1ccc(C(=O)O)cc1OC(F)(F)F)cn2-c1cnc(N2CCC2)nc1 [P-0281, 4-(1-(2-(azetidin-1-yl)pyrimidin-5-yl)-5-(3,5-dimethylisoxazol-4-yl)-1H-pyrrolo[2,3-b]pyridin-3-yl)-3-(trifluoromethoxy)benzoic acid]	0.1 to 1000
Cc1noc(C)c1-c1cnc2c(c1)c(-c1ccc(C(=O)O)cc1OC(F)(F)F)cn2-c1ccc(C(C)(C)O)cc1 [P-0314, 4-(5-(3,5-dimethylisoxazol-4-yl)-1-(4-(2-hydroxypropan-2-yl)phenyl)-1H-pyrrolo[2,3-b]pyridin-3-yl)-3-(trifluoromethoxy)benzoic acid]	0.1 to 1000
C=C(C)c1ccccc1-n1cc(-c2ccc(C(=O)O)cc2OC(F)(F)F)c2cc(-c3c(C)noc3C)cnc21 [P-0312, 4-(5-(3,5-dimethylisoxazol-4-yl)-1-(2-(prop-1-en-2-yl)phenyl)-1H-pyrrolo[2,3-b]pyridin-3-yl)-3-(trifluoromethoxy)benzoic acid]	0.1 to 1000
CCOc1cc(C(=O)O)cc(OCC)c1-n1cc(-c2cn(C(C)C)nc2C)c2ncc(-c3c(C)noc3C)cc21 [P-0259, 4-(6-(3,5-dimethylisoxazol-4-yl)-3-(1-isopropyl-3-methyl-1H-pyrazol-4-yl)-1H-pyrrolo[3,2-b]pyridin-1-yl)-3,5-diethoxybenzoic acid]	0.1 to 1000
